Reference: patent US9708289B2, “Imidazole diketone compound and use thereof” (HINOVA PHARMACEUTICALS INC., priority 2013, dated 2017)
pIC50: −log10 of the molar value.

How the values were obtained:
[1] = Evaluation of pharmacokinetics in mice; format: in vivo, Kunming mice (KM mice); conditions: 10 mg/kg intragastric; for Tmax: Kunming (KM), mouse, po; for Tmax / Cmax: male KM mice, plasma; for Cmax compared with undeuterated compound 10: mice
Experimental: 10 mg/kg compound 10, 14, 17, 20 were intragastrically administered to Healthy Kunming mice (KM mice), male, weighing 18-20 g. Compounds were dissolved in DMSO:PEG400:H2O 1:5:14. The volume of administration was 10 mL/kg. Before testing, the mice fasted for 12 h and drunk water ad libitum. Then, the mice were fed together at 2 h after administration. 0.3 mL of blood were took from 3 mice through retrobulbar venous plexus at 0.5, 1.0, 2.0, 4.0, 6.0 and 24 h after administration, placed in heparinized tubes, and centrifuged for 5 min at 11000 rpm. The plasma was separated and frozen in a refrigerator at −20° C. 100 uL of serum was transferred with a pipettor into a clean plastic centrifuge tube marked with compound's name and time point, and diluted with acetonitrile (CH3CN) and centrifuged. The concentration of drug was analyzed by LC-MS. Serum was stored at −80° C. before analysis. The pharmacokinetic parameters of deuterated compound (compound 14, 17, and 20) and undeuterated compound (compound 10) were show in following table.

[2] = Evaluation of pharmacokinetics in rats; format: in vivo, SD rats; conditions: 10 mg/kg intragastric; for AUCINF_obs / Cmax / Tmax / AUC(0-t) / MRT / half-life: male SD rats, mean, n = 4
Experimental: 10 mg/kg compound 10, and 14 were intragastrically administered to SD rats male, weighing […]. Compounds were dissolved in DMSO:PEG400:H2O 1:5:14. The volume of administration was 10 mL/kg. Conventional methods were used for the results evaluation.

[3] = test system: human prostate cancer LNCaP; test: Inhibition of the growth of prostate cancer cells (MTT, R1881-stimulated); format: cell-based; conditions: for pIC50: Homo sapiens, R1881 added, 96 hours, MTT, read-out: IC50, inhibition activity on LNCap/AR cell
Experimental: The ability of compounds to inhibit the growth of prostate cancer cells was tested:
First, the human prostate cancer LNCaP (purchased from ATCC, USA) was transferred to a RPM11640 culture medium containing 10% charcoal-stripped fetal bovine serum (FBS). After cultured for three days, the cells were digested with 0.25% trypsin and counted through trypan blue staining. The cells were plated, with 100 μL cell suspension containing 4000 cells per well. 200 μL medium was added to the wells around the cell plate for avoiding edge effects.
The next day, 6 drug concentrations was prepared (48.6 μM, 19.44 μM, 7.776 μM, 3.11 μM, 1.24 μM, 0.5 μM) before administration, and 100 μL of corresponding compound at corresponding concentration was added into each well of a cell plate. The cell plate was placed in a cell incubator for 30 min, 10 μL of 4 nM R1881 was added into each well and homogeneously mixed. Upon the addition of R1881, the cell plate was placed in a cell incubator and incubated at 37° C., under 5% CO2 for 96 hours. Afterwards, 40 μL of MTT (prepared in PBS, concentration is 2.5 mg/mL) was added into each wells, and incubated at 37° C. for 2 hours. The supernatant was sucked off, and 100 μL of DMSO was added into each well. The plate was shaken by a vibrator for 10 min for dissolving formazan. The plate was read at 570 nm wavelength using a microplate reader in the unit of OD. The inhibition rate of test compounds was calculated with the following equation: IR (%)=(ODcontrol−ODsample)/(ODcontrol−ODblank)×100%
The inhibition rate curve of test compounds was plotted using the software XLFit (Formula 205), which can calculate the 50% inhibition rate, i.e. IC50.

| SMILES | Tmax [1] [h] | Cmax [1] [µg/mL] | Cmax compared with undeuterated compound 10 [1] | AUCINF_obs [2] [ng·h/mL] | Cmax [2] [ng/mL] | Tmax [2] [h] | AUC(0-t) ([2]; rat, in vivo, po) [ng·h/mL] | MRT ([2]; rat, in vivo, po) [h] | half-life ([2]; rat, in vivo, po) [min] | pIC50 [3] | Cmax ([2]; rat, in vivo, po, read-out: Cmax) [ng/mL] | AUC relative to compound 10 ([2]; rats) | Cmax relative to compound 10 ([2]; rats) | half-life compared with compound 10 ([2]; rats) | inhibition on the growth of prostate cancer cell compared with compound 10 [3] |
| --- | --- | --- | --- | --- | --- | --- | --- | --- | --- | --- | --- | --- | --- | --- | --- |
| [2H]c1cc(C(=O)NC)c(F)c([2H])c1N1C(=S)N(c2cnc(C#N)c(C(F)(F)F)c2)C(=O)C12CCC2 [Compound 17, 4-[7-(6-cyano-5-trifluoromethyl-3-pyridyl)-8-oxo-6-thio-5,7-diazaspiro [3,4]-5-octyl]-3,5-bideuterium-2-fluoro-N-methyl-benzamide] | 6 | 3.48 |  |  |  |  |  |  |  |  |  |  |  |  |  |
| [2H]c1cc(C(=O)NC([2H])([2H])[2H])c(F)c([2H])c1N1C(=S)N(c2cnc(C#N)c(C(F)(F)F)c2)C(=O)C12CCC2 [Compound 20, 4-[7-(6-cyano-5-trifluoromethyl-3-pyridyl)-8-oxo-6-thio-5,7-diazaspiro[3,4]-5-octyl]-3,5-bideuterium-2-fluoro-N-trideuteromethyl-benzamide] | 4 | 3.94 | significantly increased |  |  |  |  |  |  |  |  |  |  |  |  |
| CNC(=O)c1ccc(N2C(=S)N(c3cnc(C#N)c(C(F)(F)F)c3)C(=O)C23CCC3)cc1F [Compound 10, 4-[7-(6-cyano-5-trifluoromethyl-3-pyridyl)-8-oxo-6-thio-5,7-diazaspiro [3, 4]-5-octyl]-2-fluoro-N-methyl-benzamide, reference compound] | 6 | 3.32 |  | 14752 | 946.0 | 3.500 | 13100 | 10.7 | 443 | 6.20 |  |  |  |  |  |
| [2H]C([2H])([2H])NC(=O)c1ccc(N2C(=S)N(c3cnc(C#N)c(C(F)(F)F)c3)C(=O)C23CCC3)cc1F [Compound 14, 4-[7-(6-cyano-5-trifluoromethyl-3-pyridyl)-8-oxo-6-thio-5,7-diazaspiro [3, 4]-5-octyl]-2-fluoro-N-trideuterated methyl-benzamide] | 4 | 4.48 | significantly increased | 28729 |  | 3.500 | 24100 | 13 | 536 | 6.55 | 1700 | about 2 fold | about 2 fold | longer half-life | better inhibition |
